The values that follow come from patent US5032680A (priority 1988, dated 1991).

The test system of data set [1] is Mouse transplantable tumour Sarcoma 180 cells. The experiment in a line: Measurement of antitumour activity value (Sarcoma 180 subcutaneously transplanted, oral administration). In kind it is in vivo, male ICR/JCL mice. The settings on record: once a day for 9 consecutive days, tumour weight on day 12, Sarcoma 180, ICR/JCL mice; for ED50 (dose at which tumour proliferation-inhibitory rate is over 50%): 17280 min. The procedure: Mouse transplantable tumour Sarcoma 180 cells (5×10^6 cells) were transplanted subcutaneously into male ICR/JCL mice (weighing 27-30 g) in the back. The test compounds were dissolved or suspended in a 0.5 weight % aqueous solution of CMC containing Tween 80 at the concentration of 0.1 weight % to afford test preparations. Using 7 animals per group, the test preparations were orally administered to each mouse at the dose of 0.1 ml/10 g mouse body weight once a day for consecutive 9 days from the following day of the day when the tumours were transplanted.
On the twelfth day from the day of tumour-transplantation, the average weight of tumours for each of the test compounds at the respective doses was measured. The weight was compared with the average weight of the tumours of the control group, and the tumour proliferation-inhibitory rates of the test compounds based on that of the control group were estimated at the respective dose.

Another data set concerns tumour. The following applies: cited from earlier work.
For data set [2] the following is noted: in vivo; cited from earlier work.
For data set [3] the following is noted: in vivo; cited from earlier work. The source holds these as a separate data set.

As for `O=c1[nH]c(=O)n([C@H]2C[C@H](O)[C@@H](COP(=O)(Oc3ccccc3)Oc3ccccc3)O2)cc1F` [Ex. 1, diphenyl 2'-deoxy-5-fluoro-5'-uridylate], the “ED50 (dose at which tumour proliferation-inhibitory rate is over 50%)” value in data set [1] came out at 11.1 mg/kg.

With `O=C(c1ccccc1)n1c(=O)c(F)cn([C@H]2C[C@H](O)[C@@H](COP(=O)(Oc3ccccc3)Oc3ccccc3)O2)c1=O` [Ex. 3, diphenyl 3-benzoyl-2'-deoxy-5-fluoro-5'-uridylate], the “ED50 (dose at which tumour proliferation-inhibitory rate is over 50%)” value in data set [1] is reported as 7.0 mg/kg.

For the compound `CC(C)=CCCC(C)CCOP(=O)(OC[C@H]1O[C@@H](n2cc(F)c(=O)[nH]c2=O)C[C@@H]1O)Oc1ccccc1` (stereo partly drawn) [Ex. 5, citroneryl phenyl 2'-deoxy-5-fluoro-5'-uridylate], the “ED50 (dose at which tumour proliferation-inhibitory rate is over 50%)” value in data set [1] is reported as 23.8 mg/kg.

Consider `Cc1cc(OP(=O)(OC[C@H]2O[C@@H](n3cc(F)c(=O)[nH]c3=O)C[C@@H]2O)Oc2ccccc2)ccc1Cl` (stereo partly drawn) [Ex. 6, 4-chloro-3-methylphenyl phenyl 2'-deoxy-5-fluoro-5'-uridylate], for which the “ED50 (dose at which tumour proliferation-inhibitory rate is over 50%)” value in data set [1] was found to be 6.2 mg/kg.

`O=c1[nH]c(=O)n([C@H]2C[C@H](O)[C@@H](COP(=O)(Oc3ccc(Cl)cc3)Oc3ccc(Cl)cc3)O2)cc1F` [Ex. 7, di-p-chlorophenyl 2'-deoxy-5-fluoro-5'-uridylate]: the “ED50 (dose at which tumour proliferation-inhibitory rate is over 50%)” value in data set [1] came out at 1.4 mg/kg.

In the case of `O=c1[nH]c(=O)n([C@H]2C[C@H](O)[C@@H](COP(=O)(Oc3ccccc3Cl)Oc3ccccc3Cl)O2)cc1F` [Ex. 8, Di-o-chlorophenyl 2'-deoxy-5-fluoro-5'-uridylate], the “ED50 (dose at which tumour proliferation-inhibitory rate is over 50%)” value in data set [1] amounted to 10.0 mg/kg.

As to `O=c1[nH]c(=O)n([C@H]2C[C@H](O)[C@@H](COP(=O)(Oc3cccc(Cl)c3)Oc3cccc(Cl)c3)O2)cc1F` [Ex. 9, Di-m-chlorophenyl 2'-deoxy-5-fluoro-5'-uridylate], the “ED50 (dose at which tumour proliferation-inhibitory rate is over 50%)” value in data set [1] stood at 1.4 mg/kg.

On to `O=c1[nH]c(=O)n([C@H]2C[C@H](O)[C@@H](COP(=O)(Oc3cccc(Cl)c3Cl)Oc3cccc(Cl)c3Cl)O2)cc1F` [Ex. 10, Di(2,3-dichlorophenyl) 2'-deoxy-5-fluoro-5'-uridylate], for which the “ED50 (dose at which tumour proliferation-inhibitory rate is over 50%)” value in data set [1] was 3.6 mg/kg.

On to `O=c1[nH]c(=O)n([C@H]2C[C@H](O)[C@@H](COP(=O)(Oc3ccc(Cl)cc3Cl)Oc3ccc(Cl)cc3Cl)O2)cc1F` [Ex. 11, Di(2,4-dichlorophenyl) 2'-deoxy-5-fluoro-5-uridylate], for which, in data set [1], the “ED50 (dose at which tumour proliferation-inhibitory rate is over 50%)” value worked out at 1.5 mg/kg.

As to `O=c1[nH]c(=O)n([C@H]2C[C@H](O)[C@@H](COP(=O)(Oc3ccc(Cl)c(Cl)c3)Oc3ccc(Cl)c(Cl)c3)O2)cc1F` [Ex. 12, Di(3,4-dichlorophenyl) 2'-deoxy-5-fluoro-5'-uridylate], the “ED50 (dose at which tumour proliferation-inhibitory rate is over 50%)” value in data set [1] was 2.5 mg/kg.

As for `O=c1[nH]c(=O)n([C@H]2C[C@H](O)[C@@H](COP(=O)(Oc3ccc4c(c3)OCO4)Oc3ccc4c(c3)OCO4)O2)cc1F` [Ex. 13, Di(3,4-methylenedioxyphenyl) 2'-deoxy-5-fluoro-5'-uridylate], in data set [1], the “ED50 (dose at which tumour proliferation-inhibitory rate is over 50%)” value was 25.0 mg/kg.

As to `N#Cc1ccc(OP(=O)(OC[C@H]2O[C@@H](n3cc(F)c(=O)[nH]c3=O)C[C@@H]2O)Oc2ccc(C#N)cc2)cc1` [Ex. 16, Di-p-cyanophenyl 2'-deoxy-5-fluoro-5'-uridylate], the “ED50 (dose at which tumour proliferation-inhibitory rate is over 50%)” value in data set [1] is 6.1 mg/kg.

With `O=c1[nH]c(=O)n([C@H]2C[C@H](O)[C@@H](COP(=O)(Oc3ccc(F)cc3)Oc3ccc(F)cc3)O2)cc1F` [Ex. 17, Di-p-fluorophenyl 2'-deoxy-5-fluoro-5'-uridylate], the “ED50 (dose at which tumour proliferation-inhibitory rate is over 50%)” value in data set [1] is reported as 1.3 mg/kg.

Turning to `O=c1[nH]c(=O)n([C@H]2C[C@H](O)[C@@H](COP(=O)(Oc3ccc(Br)cc3)Oc3ccc(Br)cc3)O2)cc1F` [Ex. 18, Di-p-bromophenyl 2'-deoxy-5-fluoro-5'-uridylate], in data set [1], the “ED50 (dose at which tumour proliferation-inhibitory rate is over 50%)” value stood at 1.2 mg/kg.

In the case of `O=c1[nH]c(=O)n([C@H]2C[C@H](O)[C@@H](COP(=O)(Oc3ccc(C(F)(F)F)cc3)Oc3ccc(C(F)(F)F)cc3)O2)cc1F` [Ex. 19, Di-p-trifluoromethylphenyl 2'-deoxy-5-fluoro-5'-uridylate], the “ED50 (dose at which tumour proliferation-inhibitory rate is over 50%)” value in data set [1] is listed as 0.9 mg/kg.

On to `CC(=O)O[C@H]1C[C@H](n2cc(F)c(=O)[nH]c2=O)O[C@@H]1COP(=O)(Oc1ccc(Cl)cc1)Oc1ccc(Cl)cc1` [Ex. 22, di-p-chlorophenyl 3'-acetyl-2'-deoxy-5-fluoro-5'-uridylate], for which, in data set [1], the “ED50 (dose at which tumour proliferation-inhibitory rate is over 50%)” value is given as 1.2 mg/kg.

Turning to `O=c1[nH]c(=O)n([C@H]2C[C@H](O)[C@@H](COP(=O)(Oc3ccc([N+](=O)[O-])cc3)Oc3ccc([N+](=O)[O-])cc3)O2)cc1F` [Ex. 24, di-p-nitrophenyl 2'-deoxy-5-fluoro-5'-uridylate], in data set [1], the “ED50 (dose at which tumour proliferation-inhibitory rate is over 50%)” value is 5.4 mg/kg.

As to `O=c1[nH]c(=O)n([C@H]2C[C@H](O)[C@@H](COP(=O)(Sc3ccc(Cl)cc3)Sc3ccc(Cl)cc3)O2)cc1F` [Ex. 26, 2'-deoxy-5-fluorouridine 5'-(S,S-di-p-chlorophenylphosphorodithioate)], the “ED50 (dose at which tumour proliferation-inhibitory rate is over 50%)” value in data set [1] came out at 4.2 mg/kg.

As for `O=c1[nH]c(=O)n([C@H]2C[C@H](O)[C@@H](CO)O2)cc1F` [FdUrd, 2'-deoxy-5-fluorouridine], the ED50 in data set [1] (Mus musculus, 288 h, read-out: ED50 (dose at which tumour proliferation-inhibitory rate is over 50%)) came out at 59.5 mg/kg. Further, in the data set with tumour (cytostatic potency test (in vivo)), the “tumour proliferation-inhibitory action (in words)” value is listed as “extremely potent tumour proliferation-inhibitory action”. Moreover, in the data set with tumour (in vivo), the “effect as compared with 5-fluorouracil (in words)” value was “can not be found to exhibit any particular superior effects as compared with 5-fluorouracil”. Also, in data set [2], the “decomposition into 5-fluorouracil (in words)” value is “a large portion thereof is decomposed into 5-fluorouracil”; the “metabolism and excretion (in words)” value was “rapidly metabolized and excreted”. In data set [3], the “toxicity of FdUrd (in words)” value was “the toxicity thereof is strong”.
